Some results are limits rather than exact numbers.

For the assay, the system named is HCV replicon. Nature of the assay: Replicon based assay of HCV replication inhibition (NPT ELISA). The assay is classed as cell-based, Hepatitis C virus. The following applies: Hepatitis C virus, Huh-7, 72 h, Table III; Huh-7 HCV replicon-containing cells, three days; read-out: Activity. The gist of the method:
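NPT (neomycin phosphotransferase) content, proportional to replicon replication, quantified by capture ELISA on day four. Before that, replicon-bearing Huh-7 cells in G418-free screening medium were exposed three days at 37° C to compound, typically six doses from 10 to 0.03 micromolar, with equal DMSO across wells.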
(In antiviral work, replicon cells carry a viral genome segment that copies itself.)
`CCCCCOc1ccc(Nc2nc(/C=C/c3ccc(F)c(F)c3)cs2)cc1C(F)(F)F` [compound 599, 4-(3,4-difluorostyryl)-N-(3-(trifluoromethyl)-4-(pentyloxy)phenyl)thiazol-2-amine]: the EC50 is less than 1000 nM. As for `CCCCCOc1ccc(Nc2nc(/C=C/c3ccc(OC)cc3)cs2)cc1C(F)(F)F` [compound 600, 4-(4-methoxystyryl)-N-(3-(trifluoromethyl)-4-(pentyloxy)phenyl)thiazol-2-amine], the EC50 was less than 1000 nM. For `CCCCCOc1ccc(Nc2nc(/C=C/c3ccc(Cl)cc3)cs2)cc1C(F)(F)F` [compound 601, 4-(4-chlorostyryl)-N-(3-(trifluoromethyl)-4-(pentyloxy)phenyl)thiazol-2-amine], the EC50 was less than 1000 nM.

Turning to `CCCCCCCOc1ccc(C(=O)Nc2nc(-c3cccnc3)cs2)cc1` [compound 602, 4-(heptyloxy)-N-(4-(pyridin-3-yl)thiazol-2-yl)benzamide], the EC50 was greater than 10000 nM. In the case of `CCCCCOc1ccc(Nc2nc(-c3cncc(C(=O)OCC)c3)cs2)cc1C(F)(F)F` [compound 603, ethyl 5-(2-(3-(trifluoromethyl)-4-(pentyloxy)phenylamino)thiazol-4-yl)pyridine-3-carboxylate] it was 1000 to 10000 nM; in that of `CCCCCCCCOc1ccc(Nc2nccs2)cc1C(F)(F)F` [compound 605, N-(3-(trifluoromethyl)-4-(octyloxy)phenyl)thiazol-2-amine], less than 1000 nM; in that of `FC(F)(F)c1cc(Nc2nc(-c3cnccn3)cs2)ccc1OC1CCCC1` [compound 606, N-(4-(cyclopentyloxy)-3-(trifluoromethyl)phenyl)-4-(pyrazin-2-yl)thiazol-2-amine], less than 1000 nM. As for `CCCCCOc1ccc(Nc2nc(Cc3ccc(F)c(F)c3)cs2)cc1C(F)(F)F` [compound 607, 4-(3,4-difluorobenzyl)-N-(3-(trifluoromethyl)-4-(pentyloxy)phenyl)thiazol-2-amine], the EC50 was 1000 to 10000 nM.

As for `CCCCCCCCOc1ccc(Nc2nc(Cc3ccc(F)c(F)c3)cs2)cc1` [compound 608, 4-(3,4-difluorobenzyl)-N-(4-(octyloxy)phenyl)thiazol-2-amine], the EC50 is greater than 10000 nM. On to `CCCCCCCCOc1ccc(Nc2nc(Cc3ccc(F)c(F)c3)cs2)cc1C(F)(F)F` [compound 609, 4-(3,4-difluorobenzyl)-N-(3-(trifluoromethyl)-4-(octyloxy)phenyl)thiazol-2-amine], for which the EC50 lay within 1000 to 10000 nM. In the case of `CCCCCOc1ccc(Nc2nc(Cc3ccc(F)c(F)c3)cs2)cc1F` [compound 610, 4-(3,4-difluorobenzyl)-N-(3-fluoro-4-(pentyloxy)phenyl)thiazol-2-amine], the EC50 was greater than 10000 nM. In the case of `CCCCCN(C)c1ccc(Nc2nc(Cc3ccc(F)c(F)c3)cs2)cc1C(F)(F)F` [compound 611, N^4-(4-(3,4-difluorobenzyl)thiazol-2-yl)-2-(trifluoromethyl)-N^1-methyl-N^1-pentylbenzene-1,4-diamine], the EC50 is greater than 10000 nM.

For `CCCCCCCCN(C)c1ccc(Nc2nc(Cc3ccc(F)c(F)c3)cs2)cc1` [compound 612, N^1-(4-(3,4-difluorobenzyl)thiazol-2-yl)-N^4-methyl-N^4-octylbenzene-1,4-diamine], the EC50 is greater than 10000 nM. For the compound `CCCCCCCCOc1ccc(Nc2nc(-c3ccc(C#N)nc3)cs2)cc1C(F)(F)F` [compound 613, 5-(2-(3-(trifluoromethyl)-4-(octyloxy)phenylamino)thiazol-4-yl)pyridine-2-carbonitrile], the EC50 is less than 1000 nM. In the case of `N#Cc1ccc(-c2csc(Nc3ccc(OCCCC4CCCC4)c(C(F)(F)F)c3)n2)cn1` [compound 614], the EC50 was less than 1000 nM. As for `CCCCCOc1ccc(Nc2nc(-c3ccc(C#N)nc3)cs2)cc1F` [compound 615, 5-(2-(3-fluoro-4-(pentyloxy)phenylamino)thiazol-4-yl)pyridine-2-carbonitrile], the EC50 was less than 1000 nM. Regarding `N#Cc1ccc(-c2csc(Nc3ccc(OC4CCCC4)c(C(F)(F)F)c3)n2)cn1` [compound 616, 5-(2-(4-(cyclopentyloxy)-3-(trifluoromethyl)phenylamino)thiazol-4-yl)pyridine-2-carbonitrile], the EC50 was less than 1000 nM. In the case of `CCCCCCCCOc1ccc(Nc2nc(-c3cncnc3)cs2)cc1C(F)(F)F` [compound 617, N-(3-(trifluoromethyl)-4-(octyloxy)phenyl)-4-(pyrimidin-5-yl)thiazol-2-amine] it was less than 1000 nM; in that of `CCCCCOc1ccc(Nc2nc(-c3cncnc3)cs2)cc1F` [compound 618, N-(3-fluoro-4-(pentyloxy)phenyl)-4-(pyrimidin-5-yl)thiazol-2-amine], less than 1000 nM. As for `CCCCCCCCOc1ccc(Nc2nc(-c3cnc(Cl)nc3)cs2)cc1` [compound 619, 4-(2-chloropyrimidin-5-yl)-N-(4-(octyloxy)phenyl)thiazol-2-amine], the EC50 is less than 1000 nM. In the case of `CCCCCCCCOc1ccc(Nc2nc(-c3cnc(Cl)nc3)cs2)cc1C(F)(F)F` [compound 620, 4-(2-chloropyrimidin-5-yl)-N-(3-(trifluoromethyl)-4-(octyloxy)phenyl)thiazol-2-amine], the EC50 was less than 1000 nM. In the case of `FC(F)(F)c1cc(Nc2nc(-c3cncnc3)cs2)ccc1OC1CCCC1` [compound 621, N-(4-(cyclopentyloxy)-3-(trifluoromethyl)phenyl)-4-(pyrimidin-5-yl)thiazol-2-amine], the EC50 was less than 1000 nM. Regarding `FC(F)(F)c1cc(Nc2nccs2)ccc1OCCCC1CCCC1` [compound 622, N-(4-(3-cyclopentylpropoxy)-3-(trifluoromethyl)phenyl)thiazol 2-amine], the EC50 is less than 1000 nM. `CCCCCCCCOc1ccc(Nc2nccs2)cc1` [compound 623, N-(4-(octyloxy)phenyl)thiazol-2-amine]: the EC50 is less than 1000 nM.

Take `CCCCCCCCN(C)c1ccc(Nc2nccs2)cc1C(F)(F)F` [compound 624, 2-(trifluoromethyl)-N^1-methyl-N^1-octyl-N^4-(thiazol-2-yl)benzene-1,4-diamine]: the EC50 was less than 1000 nM. In the case of `CCCCCOc1ccc(Nc2nc(Cc3ccc(F)cc3)cs2)cc1C(F)(F)F` [compound 627, 4-(4-fluorobenzyl)-N-(3-(trifluoromethyl)-4-(pentyloxy)phenyl)thiazol-2-amine] it was less than 1000 nM; in that of `CCCCCCCCOc1ccc(Nc2nc(Cc3ccc(F)cc3)cs2)cc1` [compound 628, 4-(4-fluorobenzyl)-N-(4-(octyloxy)phenyl)thiazol-2-amine], 1000 to 10000 nM.

As for `CCCCCCCCOc1ccc(Nc2nc(Cc3ccc(F)cc3)cs2)cc1C(F)(F)F` [compound 629, 4-(4-fluorobenzyl)-N-(3-(trifluoromethyl)-4-(octyloxy)phenyl)thiazol-2-amine], the EC50 was less than 1000 nM. Regarding `CCCCCOc1ccc(Nc2nc(Cc3ccc(F)cc3)cs2)cc1F` [compound 630, 4-(4-fluorobenzyl)-N-(3-fluoro-4-(pentyloxy)phenyl)thiazol-2-amine], the EC50 was greater than 10000 nM. In the case of `CCCCCN(C)c1ccc(Nc2nc(Cc3ccc(F)cc3)cs2)cc1C(F)(F)F` [compound 631, N^4-(4-(4-fluorobenzyl)thiazol-2-yl)-2-(trifluoromethyl)-N^1-methyl-N^1-pentylbenzene-1,4-diamine] it was greater than 10000 nM.
